Results reported in article PMC7312527 (International Journal of Molecular Sciences, 2020).

Columns and labels:
in vitro = format: cell-based; settings: human, human hepatic stellate cells (HSCs), HSCs, 24 h, read-out: hepatotoxicity (MTT; cell viability as percentage of control)
Description: Human hepatic stellate cells (HSCs, Sciencell) were cultured in the Stellate Cell Medium (Sciencell) with 1% Stellate Cell Growth Supplement, 2% fetal bovine serum (FBS), and 1% penicillin/streptomycin solution (Sciencell). Cells were kept in the incubator (37 °C, 5% CO2). At the beginning of the experiment, cells were seeded in the 96-well plates at a density of 5 × 10^3 cells per well and incubated in the incubator for 24 h. After the incubation period, medium was removed and HSCs were exposed to 100 µL of the compound solutions over a range of concentrations (10–0.1 µM) or nothing but culture medium (blank control). Cells were further incubated for 24 h. At the end, medium was removed, cells were washed with PBS, and 50 µL of the MTT solution (0.75 mg/mL) was added to the cells. Plates were kept in the dark for 2 h at 37 °C. Finally, the MTT solution was removed and 100 µL of DMSO was added to each well. Plates with DMSO were kept at room temperature for 10 min. After this time, 5 µL of Sorensen Buffer was added to each well. Plates were swayed and the absorbance was measured at a wavelength of 570 nm by a microplate reader (Synergy H1, BioTek). The cell viability was expressed as a percentage of the control values (blank control).

[1] = target: T1, AChE–BACE-1A protein pair (Homo sapiens, UniProt P22303+P56817); assay: Yeast three-hybrid (Y3H) test and β-galactosidase assay, AChE–BACE-1A; format: cell-based
T1 construct: pGBKT7-hAChE plasmid contained the cDNA fragment encoding for aa 52–577; N-terminal domain (aa 46–457) of BACE1A (GenBank: AF204943.1); host or cells: Saccharomyces cerevisiae Y2HGold (bait) mated with Y187 (prey)
T1 sequence (P22303 52-577): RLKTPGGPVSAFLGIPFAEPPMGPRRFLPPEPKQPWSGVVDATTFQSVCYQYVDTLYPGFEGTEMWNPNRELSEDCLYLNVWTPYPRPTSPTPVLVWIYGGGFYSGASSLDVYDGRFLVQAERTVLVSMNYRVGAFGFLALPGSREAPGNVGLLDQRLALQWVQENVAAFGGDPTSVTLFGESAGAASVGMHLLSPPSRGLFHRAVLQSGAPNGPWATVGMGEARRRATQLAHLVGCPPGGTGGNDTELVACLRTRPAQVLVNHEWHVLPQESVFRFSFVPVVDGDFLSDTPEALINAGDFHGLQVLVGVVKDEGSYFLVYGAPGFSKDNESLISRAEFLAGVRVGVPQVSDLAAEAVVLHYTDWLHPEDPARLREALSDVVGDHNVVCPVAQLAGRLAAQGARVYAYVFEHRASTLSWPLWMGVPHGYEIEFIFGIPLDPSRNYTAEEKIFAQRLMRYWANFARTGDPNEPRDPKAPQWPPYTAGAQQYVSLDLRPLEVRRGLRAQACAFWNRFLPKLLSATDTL
T1 sequence (P56817 46-457): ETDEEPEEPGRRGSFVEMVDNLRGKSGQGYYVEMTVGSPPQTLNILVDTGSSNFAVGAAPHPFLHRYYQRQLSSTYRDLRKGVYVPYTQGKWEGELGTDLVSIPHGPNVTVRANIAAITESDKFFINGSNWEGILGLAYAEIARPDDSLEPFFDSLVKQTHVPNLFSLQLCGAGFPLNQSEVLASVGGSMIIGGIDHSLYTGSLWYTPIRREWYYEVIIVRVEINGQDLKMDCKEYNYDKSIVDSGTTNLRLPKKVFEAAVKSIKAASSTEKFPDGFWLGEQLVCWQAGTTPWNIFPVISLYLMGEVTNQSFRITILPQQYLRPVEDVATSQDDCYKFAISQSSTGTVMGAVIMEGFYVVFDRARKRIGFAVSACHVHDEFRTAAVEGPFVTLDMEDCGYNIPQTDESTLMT
Description: The putative induction of interactions between hybrid ligands and five selected proteins was evaluated by the Y3H method. […]. The company maintained cDNA synthesis and cloning of inserts in a proper frame, such as the NdeI/BamHI fragments into the pGBKT7 (AChE) or pGADT7 (A4, BACE1A, MAO B, MAPT) vectors. Moreover, the yeast codon optimization was realized to facilitate the high expression of human recombinant proteins in Saccharomyces cerevisiae. The cDNA encoding for human AChE (GenBank M55040.1) was modified by removing the fragments for a signal peptide (aa 1–51) and the domain responsible for protein tetramerization (aa 578–611). […]
The putative protein–protein interactions between bait (AChE) and the four preys (A4, BACE1A, MAO B, and MAPT) were analyzed by the small-scale mating procedure (5mL) based on the Matchmaker Gold yeast two-hybrid system manual recommendations. […]
The yeast β-galactosidase assay kit (ThermoFisher Scientific, USA) was applied to quantitatively analyze the strength of the hybrid-ligand induced interactions.
To evaluate the β-galactosidase activity in the yeast culture, the yeast β-galactosidase microplate assay protocol (stopped) was used according to the manufacturer’s instructions. […] The optical densities at 660 nm and absorbance at 420 nm were evaluated by (Synergy H1, Biotek). In the quantitative β-galactosidase assay, the hybrid ligand 3c was used. […]

SH-SY5Y cells = assay: Neuroprotection against oxidative stress induced by H2O2 (MTT); format: cell-based, human; settings: H2O2 100 µM

## O=C(NCCCCNc1c2c(nc3ccccc13)CCCC2)c1cc(Cl)cc(Cl)c1 [Compound 3c]
In vitro; 0.1 µM
  viability at 24 h, 0.1 µM: 99.9%
In vitro; 1 µM
  viability at 24 h, 1 µM: 95.4%
In vitro; 10 µM
  viability at 24 h, 10 µM: 87.4%
[1]; 10 µM hybrid ligand
  hybrid ligand-mediated interaction AChE–BACE-1A (colonies on DDO/X/A plates): interaction between AChE and BACE-1 is mediated by hybrid ligand 3c
[1]; AChE–BACE-1A, 10 μM ligand, yeast grown 96 h
  activity of β-galactosidase: 88.69 ± 2.57 units
SH-SY5Y cells; compound 0.01 µM
  neuroprotection: 46.17%
SH-SY5Y cells; compound 0.1 µM
  neuroprotection: 36.48%
SH-SY5Y cells; compound 1 µM
  neuroprotection: 0%
SH-SY5Y cells; compound 10 µM
  neuroprotection: 0%
